The source made the active and inactive calls. The rule behind the calls is not given here.
Tests used:
[1] = target: T1, Peroxisome proliferator-activated receptor delta (Homo sapiens) (UniProt Q03181); experiment: Activation of human PPAR-delta LBD expressed in HEK293T cells assessed as induction of receptor activation at 1 uM incubated for 12 to 14 hrs by luciferase reporter gene assay relative to L165,041; format: cell-based; conditions: HEK-293T
T1 sequence (whole entry): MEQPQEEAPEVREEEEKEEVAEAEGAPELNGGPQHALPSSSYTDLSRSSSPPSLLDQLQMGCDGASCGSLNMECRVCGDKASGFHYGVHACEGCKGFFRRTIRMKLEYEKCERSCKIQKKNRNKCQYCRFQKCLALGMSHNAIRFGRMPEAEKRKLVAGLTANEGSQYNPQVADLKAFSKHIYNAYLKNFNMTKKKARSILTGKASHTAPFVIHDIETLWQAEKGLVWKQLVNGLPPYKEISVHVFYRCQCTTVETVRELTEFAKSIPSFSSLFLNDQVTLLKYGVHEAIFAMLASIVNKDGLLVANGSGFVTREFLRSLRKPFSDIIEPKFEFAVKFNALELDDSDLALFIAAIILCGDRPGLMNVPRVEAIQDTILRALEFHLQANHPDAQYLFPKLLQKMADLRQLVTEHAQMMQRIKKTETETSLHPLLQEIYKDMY

[2] = target: T2, Bile acid receptor (Homo sapiens) (UniProt Q96RI1); experiment: Activation of human FXR LBD expressed in HEK293T cells assessed as induction of receptor activation at 10 uM incubated for 12 to 14 hrs by luciferase reporter gene assay; format: cell-based; conditions: HEK-293T
T2 sequence (whole entry): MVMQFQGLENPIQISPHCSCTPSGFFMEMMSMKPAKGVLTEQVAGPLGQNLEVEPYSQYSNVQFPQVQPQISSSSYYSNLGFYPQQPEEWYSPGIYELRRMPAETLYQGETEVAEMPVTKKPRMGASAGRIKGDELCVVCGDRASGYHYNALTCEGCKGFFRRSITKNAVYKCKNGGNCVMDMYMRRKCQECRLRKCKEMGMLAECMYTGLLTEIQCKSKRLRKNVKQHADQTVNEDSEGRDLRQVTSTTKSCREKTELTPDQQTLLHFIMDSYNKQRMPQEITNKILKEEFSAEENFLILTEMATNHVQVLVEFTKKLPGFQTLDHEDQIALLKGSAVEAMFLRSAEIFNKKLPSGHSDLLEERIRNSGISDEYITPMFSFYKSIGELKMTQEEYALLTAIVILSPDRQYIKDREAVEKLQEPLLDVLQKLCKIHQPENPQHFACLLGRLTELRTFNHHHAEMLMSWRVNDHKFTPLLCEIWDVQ

[3] = target: T3, Retinoic acid receptor RXR-alpha (Homo sapiens) (UniProt P19793); experiment: Activation of human RXR-alphaLBD expressed in HEK293T cells assessed as induction of receptor activation at 10 uM incubated for 12 to 14 hrs by luciferase reporter gene assay; format: cell-based; conditions: HEK-293T
T3 sequence (whole entry): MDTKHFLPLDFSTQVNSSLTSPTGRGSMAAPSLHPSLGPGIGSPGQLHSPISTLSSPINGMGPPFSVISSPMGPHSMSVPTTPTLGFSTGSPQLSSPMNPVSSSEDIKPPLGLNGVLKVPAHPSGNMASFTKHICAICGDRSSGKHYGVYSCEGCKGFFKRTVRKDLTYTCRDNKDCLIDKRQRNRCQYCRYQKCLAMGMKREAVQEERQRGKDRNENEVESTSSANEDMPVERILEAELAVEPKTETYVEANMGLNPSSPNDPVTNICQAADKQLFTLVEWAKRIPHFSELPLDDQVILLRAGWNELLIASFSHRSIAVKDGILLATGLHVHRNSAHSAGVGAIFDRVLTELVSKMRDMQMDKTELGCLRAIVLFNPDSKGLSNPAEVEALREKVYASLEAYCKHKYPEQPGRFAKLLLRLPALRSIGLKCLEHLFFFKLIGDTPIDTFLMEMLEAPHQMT

[4] = target: T4, Peroxisome proliferator-activated receptor gamma (Homo sapiens) (UniProt P37231); experiment: Activation of human PPAR-gamma LBD expressed in HEK293T cells assessed as induction of receptor activation at 10 uM incubated for 12 to 14 hrs by luciferase reporter gene assay; format: cell-based; conditions: HEK-293T
T4 sequence (whole entry): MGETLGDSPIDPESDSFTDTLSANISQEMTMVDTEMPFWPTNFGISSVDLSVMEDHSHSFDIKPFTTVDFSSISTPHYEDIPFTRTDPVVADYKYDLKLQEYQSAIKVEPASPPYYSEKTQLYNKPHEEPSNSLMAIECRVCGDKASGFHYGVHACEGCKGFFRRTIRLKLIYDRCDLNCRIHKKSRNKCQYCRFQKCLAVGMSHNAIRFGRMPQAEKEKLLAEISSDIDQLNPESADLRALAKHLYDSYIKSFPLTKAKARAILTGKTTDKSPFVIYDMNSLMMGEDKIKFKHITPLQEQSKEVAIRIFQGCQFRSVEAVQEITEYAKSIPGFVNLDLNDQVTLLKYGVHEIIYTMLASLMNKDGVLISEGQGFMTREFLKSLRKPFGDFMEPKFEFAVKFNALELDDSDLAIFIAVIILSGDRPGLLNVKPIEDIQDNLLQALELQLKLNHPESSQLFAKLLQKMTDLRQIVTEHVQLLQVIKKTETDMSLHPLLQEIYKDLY

[5] = target: T2, Bile acid receptor (Homo sapiens); experiment: Activation of FXR in human HepG2 cells assessed as increase in BSEP mRNA expression at 3 uM incubated for 8 hrs by quantitative real time PCR analysis; format: cell-based
[6] = target: T2, Bile acid receptor (Homo sapiens); experiment: Activation of FXR in human HepG2 cells assessed as increase in SHP mRNA expression at 3 uM incubated for 8 hrs by quantitative real time PCR analysis; format: cell-based
[7] = target: T2, Bile acid receptor (Homo sapiens); experiment: Activation of FXR in human HepG2 cells assessed as decrease in CYP7A1 mRNA expression at 3 uM incubated for 8 hrs by quantitative real time PCR analysis; format: cell-based
[8] = Stability in Sprague-Dawley rat liver microsomes assessed as remaining parent compound level at 10 uM presence of NADPH regenerating system by HPLC analysis; format: ADME, Microsome; conditions: read-out: Stability

%max [1]: 17%
Activity [2]: Active
Activity [3]: inactive
Activity [4]: inactive
Activity [6]: Active
Activity [7]: Active
remaining at 10 µM [8]: 48%
Compound: CC(C)c1onc(-c2c(Cl)cccc2Cl)c1COc1ccc(CNc2ccc(CC(=O)O)cc2)c(Cl)c1
Activity [5]: Active
